assay: gradient 5% acetonitrile 3 min, to 50% in 2 min, to 85% in 15 min, held 3 min, 100 µL/min; details: column: Zorbax Extend-C18 2.1 x 50 mm; eluents: water / acetonitrile, 0.1% formic acid
In short: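 The system's dead and dwell volumes were 40 μL and 900 μL, with a Zorbax Extend-C18 column (2.1 × 50 mm, 1.8 μm) run at 100 μL/min in water and acetonitrile containing 0.1% formic acid each. Pure standards were analyzed in mixtures of ~100 molecules by HPLC–quadrupole time-of-flight mass spectrometry in positive and negative ionization mode. Retention time was assigned from computationally picked, manually inspected adduct peaks.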

In order of rising RP-LC retention time:
1. CC(C)CC(=O)N1CCCn2nc(-c3ccncc3)cc2C1  543 s
2. Cc1cn(C)c(CC(=O)NCCCN2CCN(C)CC2)c1C(=O)O  561 s
3. CC(=O)Nc1ccc(-n2cnc(C(=O)N3CCC(C(N)=O)CC3)c2)nc1  564 s
4. COCCOCC(=O)NCC1CCCCC(=O)N1 (centres undefined)  576 s
5. CN1CCC(NC(=O)c2n[nH]c3c2CN(C(=O)c2ccc(F)cc2F)CC3)CC1  578 s
6. CC(=O)c1ccc(S(=O)(=O)N2CCCC(C)(C(=O)NCc3ccccc3C)C2)cc1 (centres undefined)  588 s
7. Cc1cccc2nnc(N3CCCC(C(=O)NC4CCCC4)C3)n12 (centres undefined)  597 s
8. CCC(C)N1CCN(C(=O)CCc2ccc3c(c2)CN(C(=O)C2CC2)CCO3)CC1 (centres undefined)  598 s
9. Cc1ccc2c(c1)C(O)(CC(=O)c1cccc(N)c1)C(=O)N2 (centres undefined)  606 s
10. COc1ccc(-c2cn3c(CC(=O)N4CCOCC4)csc3n2)cc1OC  607 s
11. CC(C)n1cnc2cc(CNC(=O)Cc3cccc(F)c3)ccc21  607 s
12. CCOc1ccccc1NC(=O)N1CCN(CCn2c(C(C)C)nc3cccnc32)CC1  617 s
13. CCOc1ccc(NS(=O)(=O)c2cc(C(=O)N3CCN(c4ccccn4)CC3)n[nH]2)cc1  619 s
14. Cc1ccc(NC(=O)CSc2ccc(N3CCCC(C(=O)NC4CC4)C3)nn2)cc1C (centres undefined)  628 s
15. COc1cc(-c2nc3ccc(C)cn3c2Nc2ccc3c(c2)OCCO3)ccc1O  636 s
16. O=C(COc1ccccc1)N1CCCC(c2n[nH]c(C3CC3)n2)C1 (centres undefined)  637 s
17. Cn1c(=O)n(CCN2CCOCC2)c(=O)c2c1nc1n2CCCN1c1ccc(Br)cc1  638 s
18. COc1cccc(CNC(=O)N2CCN(Cc3nc4ccccc4o3)CC2)c1  654 s
19. CCN1CCN(C(=O)Nc2ccc(Br)cc2F)c2cccnc21  659 s
20. O=C(c1ccccc1)N1C[C@H]2CNC(=O)[C@]23CCCC[C@@H]13  662 s
21. O=C(c1n[nH]c2ccccc12)N1CCn2c(nnc2-c2ccccc2)C1  664 s
22. O=C1CN(Cc2ccc(F)cc2Cl)C2(CCCC2)CN1  668 s
23. Cc1cc(=O)n(CC(=O)Nc2ccc(F)cc2Cl)c(N2CCOCC2)n1  672 s
24. COc1cccc(C2=NC3(CCN(C(C)=O)CC3)NC(c3cc(Br)ccc3O)C2)c1 (centres undefined)  694 s
25. Cc1cc(F)ccc1NC(=O)C1CCCN1S(C)(=O)=O (centres undefined)  701 s
26. COc1ccc2c(c1)C1(CCN(C(=O)C(C)C)C1)C(=O)N2C (centres undefined)  701 s
27. CCN(CC)CCNC(=O)c1cn(C)nc1S(=O)(=O)N1CCN(c2cccc(Cl)c2)CC1  711 s
28. COc1ccc(NC(=O)N2CCC(C)(C(=O)NCc3ccc4c(c3)OCO4)CC2)c(OC)c1  720 s
29. CN(C)c1cnc(-n2cc(NC(=O)c3ccc(F)cc3)cn2)nc1  723 s
30. Cc1noc(-c2ccc(-n3ncc(C(=O)NC4CCCCC4)c3C)nc2)n1  737 s
31. Cc1cc(C)n2nc(CN(C(=O)c3ccco3)c3ccccc3Cl)nc2n1  743 s
32. Cn1c(=O)n(CC(=O)O)c(=O)c2c1nc1n2CCN1c1ccc(Cl)cc1  748 s
33. COc1ccc(OC)c(-c2ccc(=O)n(CCNC(=O)C(C)Oc3ccccc3F)n2)c1 (centres undefined)  754 s
34. COc1ccc(CNC(=O)CN2C(=O)C3CCCCN3c3ccc(C(=O)N(C)C)cc32)c(OC)c1 (centres undefined)  756 s
35. O=C(Cn1cnc2c(nc3n2CCCCC3)c1=O)N1CCC(Cc2ccccc2)CC1  764 s
36. COCCCNc1c(-c2cccc(F)c2)nc2sc(C(=O)N(C)C)c(C)n12  776 s
37. CCC(C)NC(=O)c1n[nH]c2c1CC(C)CC2 (centres undefined)  777 s
38. O=C(Nc1cc(-c2ccsc2)no1)C1CC1  792 s
39. Cc1nn(CC(=O)NC(C)(C)C)c(C)c1S(=O)(=O)N1CCC(C(=O)N2CCC(C)CC2)CC1  794 s
40. CCC(C)NC(=O)C1CCN(Cc2cc3ccccc3n2Cc2cccc(Cl)c2)CC1 (centres undefined)  796 s
41. O=C(C1=C2CCCN2c2ccccc2S1(=O)=O)N1CCN(c2ccc(F)cc2)CC1  796 s
42. Cc1c(C(=O)N2CCOCC2)cnn1-c1cc(-c2nc(C3CC3)no2)ccn1  797 s
43. O=C(Cc1cccc(F)c1)Nc1cc(-c2ccccn2)no1  800 s
44. COc1cc(NC(=O)c2c(C)oc3nc(C)nc(N4CCOCC4)c23)cc(OC)c1  804 s
45. Cc1ccccc1-c1noc(CN2N=NC3C(=O)N(c4ccc(F)c(F)c4)C(=O)C32)n1 (centres undefined)  804 s
46. CC(C)=CC1C(C(=O)O)C1(C)C (centres undefined)  808 s
47. CCN(CC)C(C)CN1c2ccccc2Sc2ccccc21 (centres undefined)  813 s
48. CCc1ccccc1NC(=O)C1(C)Oc2cccnc2N(C)C1=O (centres undefined)  814 s
49. CCOc1ccc(-c2nc(-c3ccc4c(c3)ncn4CCC(=O)N3CCCC3)no2)cc1  825 s
50. COC(=O)c1cc(OC)c(OC)cc1NC(=O)C1=Cc2cc(OC)ccc2OC=C1  829 s
51. c1cc(-c2noc(-c3n[nH]c4c3CCCC4)n2)cc(-c2ccn[nH]2)c1  836 s
52. CCn1nccc1C(=O)N1CCCC1c1ccccc1F (centres undefined)  840 s
53. COc1ccc(CNC(=O)c2cn(C)nc2S(=O)(=O)N2CCSCC2)c(OC)c1  855 s
54. COc1ccc(CCc2nc3nccc(-c4ccc(OC)c(OC)c4)n3n2)cc1  856 s
55. COc1cccc(-n2c(=O)c3sccc3n(Cc3nc(-c4ccccc4OC)no3)c2=O)c1  861 s
56. C[C@H]1CN(C(=O)c2nn(C)c3ccccc23)C[C@@H]1c1nc(-c2ccncc2)no1  864 s
57. Cc1cc(C)c(CN2CCn3c(nn(C)c3=O)C2)c(C)c1  868 s
58. O=c1c2nc(-c3cccc(Cl)c3)cn2ccn1-c1cccc(F)c1  871 s
59. COC(=O)c1ccc(NC(=O)c2cnc3c(c2)c(=O)n(C)c(=O)n3-c2ccccc2)cc1  879 s
60. Cc1ccccc1-c1cn2ccn(-c3ccc(Cl)cc3)c(=O)c2n1  883 s
61. O=C(Nc1ccc(F)cc1F)N1CCC(CCNC(=O)C2(c3ccccc3)CC2)CC1  886 s
62. Cc1ccc(NC(=O)Cn2c(=O)n(-c3ccc(F)cc3)c(=O)c3c2cc(C)n3C)cc1C  888 s
63. COc1ccc(OC)c(NS(=O)(=O)c2ccc3c(c2)-c2oncc2CO3)c1  889 s
64. CC(=O)c1ccc(NC(=O)Cn2nc3c4cc(-c5ccc(Cl)cc5)nn4ccn3c2=O)cc1  894 s
65. COc1ccc(NC(=O)CSc2nc3ccccc3o2)c(OC)c1  896 s
66. CCCN(CC1CCOC1)S(=O)(=O)Cc1ccccc1Cl (centres undefined)  930 s
67. CCN1C(=O)c2cccnc2Sc2cc(NC(=O)COc3cccc(C)c3)ccc21  931 s
68. Cc1ccc(C(=O)N2CCCC(COc3ccc(C(=O)N4CCCC4)cc3)C2)cc1C (centres undefined)  940 s
69. CCc1ccc(NC(=O)Cn2nc3c(Oc4cc(C)cc(C)c4)nccn3c2=O)cc1  943 s
70. CCC(=O)N1CCc2c(C(=O)N3CCN(c4ccccc4Cl)CC3)cccc21  960 s
71. Cc1cc(N2CCOCC2)n2nc(-c3ccc(C(C)(C)C)cc3)nc2n1  960 s
72. COc1ccc(S(=O)(=O)N2CCCC(C(=O)NC3CCCCC3)C2)cc1C (centres undefined)  962 s
73. CS(=O)(=O)Nc1ccc2oc3c(OC(F)F)ccc(C(=O)Nc4c(Cl)cncc4Cl)c3c2c1  967 s
74. Clc1ccc2nc(-c3cccc(Br)c3)c(Nc3ccc4c(c3)OCCO4)n2c1  972 s
75. CSc1cccc(NC(=O)c2cnc(-c3ccc(F)cc3)nc2-c2ccncc2)c1  973 s
76. CCCN1C(=O)CCc2cc(NS(=O)(=O)c3ccc(Cl)c(Cl)c3)ccc21  983 s
77. COc1cc(OC)cc(N2C(=O)C3N=NN(Cc4nc(-c5ccc(Cl)cc5)no4)C3C2=O)c1 (centres undefined)  1020 s
78. Cc1ccc(-c2nnc(-c3cccc(S(=O)(=O)NCc4cccs4)c3)o2)cc1  1030 s
79. O=C(Nc1ccc(-c2nc(-c3ccccc3)no2)cc1)C1CC(=O)N(c2ccccc2)C1 (centres undefined)  1030 s
80. COc1ccc(OC)c(NC(=O)c2cc(S(=O)(=O)N3CCC(C)CC3)cn2C)c1  1060 s
81. Cc1csc(-c2cc(S(=O)(=O)Nc3ccc(Cl)cc3)c(C)s2)n1  1060 s
82. Cc1ccc(-c2ccc(-n3nc(C)c(S(=O)(=O)N4CCOCC4)c3C)nn2)cc1C  1060 s
83. CCN1C(=O)C2(CCN(S(=O)(=O)c3cccc(C)c3)CC2)c2ccccc21  1070 s
84. Cc1cc(C)cc(S(=O)(=O)N2CCC(n3cnc4c(C)cccc4c3=O)CC2)c1  1070 s
85. Cc1nc(CC(=O)Nc2nc(-c3ccc(OC(C)C)cc3)cs2)cs1  1080 s
86. COCCSc1nc(-c2cccs2)cc(C(F)(F)F)c1C#N  1120 s
87. CC(C)OCCCNc1nc(Nc2ccc3c(c2)OCO3)c2cnn(-c3ccccc3)c2n1  1140 s
88. COc1ccc(C)cc1NC(=O)c1nc(C2CCC2)oc1C  1290 s
89. Cc1ccc(-c2cnc(N3CCCC(C(=O)NCCC4=CCCCC4)C3)nc2)cc1 (centres undefined)  1290 s
